Reference: the supplement of paper PMC10307832

How the values were obtained:
Experiment in all cases: relative viability (nuclei count vs DMSO), 5 days (fraction); higher = more cells survive
BI-D1870 + Luminespib = compound: CC(C)CCN1c2nc(Nc3cc(F)c(O)c(F)c3)ncc2N(C)C(=O)C1C [BI-D1870] + CCNC(=O)c1noc(-c2cc(C(C)C)c(O)cc2O)c1-c1ccc(CN2CCOCC2)cc1 [Luminespib] (partner 0.01 µM)
Outline: (§1)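 One day after seeding in 1536-well plates, lung cancer cell lines were dosed by pin tool. Dosing was either single-drug or a fixed anchor-drug dose plus five library-drug doses (not always all listed) in √10 steps. After 5 days, nuclei were stained in one fix-and-stain step and counted on 4× images, and relative viability is the nuclei count of treated wells over that of vehicle wells, given as the median of duplicate plates.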

Zebularine + Pictilisib = compound: O=c1ncccn1[C@@H]1O[C@H](CO)[C@@H](O)[C@H]1O [Zebularine] + CS(=O)(=O)N1CCN(Cc2cc3nc(-c4cccc5[nH]ncc45)nc(N4CCOCC4)c3s2)CC1 [Pictilisib] (partner 1 µM)
Outline: as §1

BI-D1870 + Trametinib = compound: CC(C)CCN1c2nc(Nc3cc(F)c(O)c(F)c3)ncc2N(C)C(=O)C1C [BI-D1870] + CC(=O)Nc1cccc(-n2c(=O)n(C3CC3)c(=O)c3c(Nc4ccc(I)cc4F)n(C)c(=O)c(C)c32)c1 [Trametinib] (partner 0.02 µM)
Outline: as §1

Zebularine + Olaparib = compound: O=c1ncccn1[C@@H]1O[C@H](CO)[C@@H](O)[C@H]1O [Zebularine] + O=C(c1cc(Cc2n[nH]c(=O)c3ccccc23)ccc1F)N1CCN(C(=O)C2CC2)CC1 [Olaparib] (partner 8 µM)
Outline: as §1

Cell Line	relative viability (BI-D1870 + Luminespib; first compound 0.04 µM)	relative viability (BI-D1870 + Luminespib; first compound 0.1265 µM)	relative viability (BI-D1870 + Luminespib; first compound 0.4 µM)	relative viability (BI-D1870 + Luminespib; first compound 1.265 µM)	relative viability (BI-D1870 + Luminespib; first compound 4 µM)	relative viability (Zebularine + Pictilisib; first compound 1 µM)	relative viability (Zebularine + Pictilisib; first compound 3.162 µM)	relative viability (Zebularine + Pictilisib; first compound 10 µM)	relative viability (Zebularine + Pictilisib; first compound 31.62 µM)	relative viability (Zebularine + Pictilisib; first compound 100 µM)	relative viability (BI-D1870 + Trametinib; first compound 0.04 µM)	relative viability (BI-D1870 + Trametinib; first compound 0.1265 µM)	relative viability (BI-D1870 + Trametinib; first compound 0.4 µM)	relative viability (BI-D1870 + Trametinib; first compound 1.265 µM)	relative viability (BI-D1870 + Trametinib; first compound 4 µM)	relative viability (Zebularine + Olaparib; first compound 1 µM)	relative viability (Zebularine + Olaparib; first compound 3.162 µM)	relative viability (Zebularine + Olaparib; first compound 10 µM)	relative viability (Zebularine + Olaparib; first compound 31.62 µM)	relative viability (Zebularine + Olaparib; first compound 100 µM)
201T	1.1	1.01	1.06	1.07	1.12	0.729	0.743	0.709	0.671	0.703	0.694	0.683	0.703	0.705	0.715	0.907	0.798	0.574	0.544	0.474
A549						0.626	0.482		0.619	0.209						0.475	0.165	0.163	0.156	0.0971
A-427	1.06	0.764	0.77	1.11	0.879	0.835	0.783	0.686	0.433	0.191	0.763	0.678	0.755	0.833	0.814	0.771	0.668	0.576	0.446	0.244
ABC-1	0.581	0.776		0.512	0.371	0.62	0.326	0.633	0.564	0.439						0.782	0.696	0.666	0.702	0.522
BEN	0.409	0.358	0.441	0.356	0.35	0.56	0.504	0.291	0.385	0.3	1.01	0.896	1.05	1.04	0.963	0.819	0.623	0.608	0.428	0.506
CAL-12T	0.332	0.211	0.313	0.419	0.491	0.509	0.398		0.482	0.364	0.353	0.305	0.405	0.351	0.311	0.837	0.721	0.548	0.444	0.273
COR-L23	0.812	0.524	0.587	0.875	0.504	0.926	0.776	0.291	0.287	0.24	0.75	0.536	0.589	0.622	0.572	0.336	0.329	0.277	0.178	0.138
COR-L 105	0.824	0.828	0.631	0.854	0.666	0.388	0.381	0.373	0.464	0.41	0.428	0.409	0.487	0.419	0.458	0.715	0.671	0.766	1.02	0.644
Calu-6						0.995	0.898	0.467	0.859	0.218						0.739	0.467	0.409	0.331	0.253
ChaGo-K-1	0.643	0.406	0.601	0.631	0.551	0.896	0.557	0.466	0.447	0.27	0.899	0.753	0.874	0.909	0.856	0.332	0.32	0.289	0.202	0.187
EBC-1						0.338	0.348	0.311	0.387	0.303						0.833	0.731	0.584	0.547	0.359
EKVX	0.836	0.819	0.879	0.993	0.792	0.419	0.456		0.487	0.401	0.336	0.281	0.339	0.401	0.445	0.952	0.813		0.757	0.664
EMC-BAC-2	1.2	1.08	1.02	1.38	1.21	0.536	0.562	0.493	0.606	0.546	1.05	0.852	0.89	1.13	1.09	0.559	0.477	0.364	0.526	0.488
EPLC-272H	0.559	0.13	0.207	0.245	0.272	0.342			0.297	0.273	0.292	0.258	0.302	0.298	0.306	0.955	0.774		0.66	0.41
H3255	0.929	0.887	0.884	1.09	0.961	0.458	0.518		0.461	0.457	0.655	0.506	0.568	0.661	0.599	0.624	0.597	0.502	0.577	0.513
HARA	0.939	0.626	0.671	0.486	0.666	0.432	0.392		0.606	0.35	0.613	0.548	0.702	0.876	1.04	0.901	0.491	0.926	0.647	0.437
HCC-15	0.314	0.205	0.332	0.34	0.344	0.826	0.424	0.536	0.666	0.249	0.376	0.35	0.371	0.444	0.392	0.864	0.652	0.465	0.371	0.307
HCC-44	1.46	1	0.986	1.26	0.695	0.535	0.648	0.375	0.625	0.323	1.04	1.06	1.07	1.04	1.2	0.974	0.971	0.762	0.825	0.39
